The text below walks through data of ChEMBL document CHEMBL5260811, “Drug development against tuberculosis: Impact of alkaloids” (Eur J Med Chem, 2017).

Experiment [1] deals with Mycobacterium tuberculosis variant bovis. As to the kind of experiment: Antimycobacterial activity against Mycobacterium bovis. Type of experiment: functional.
Experiment [2] shares this test system. As to the kind of experiment: Antimycobacterial activity against Mycobacterium bovis BCG. Type of experiment: functional.

In turn, `C1=C\CCCCN2C[C@H]3CCCC/C=C\CCCCN4CC[C@@H]([C@H](CCCCCC/1)C4)[C@H](C3)C2` had an IC in experiment [1] of 2.5 µg/mL. The compound `C(=N\Nc1nncs1)/c1c[nH]c2ccccc12` had an IC in experiment [2] of 7.81 µg/mL. For the compound `OC1CCCC/C=C\CCCC[C@@H]2CN3CCCC/C=C\CCCC[C@H]4C[C@H](CN(C1)C4)[C@H]2CC3` (some centres undefined), the IC in experiment [1] was 12.5 µg/mL. Still for that read-out and setting: the figure for `C1=C\CCCC[C@@H]2CN3CCCC/C=C\CCCC[C@H]4C[C@H](CN(CCCCCC/1)C4)[C@H]2CC3` is 1 µg/mL.
